Experimental data published in patent publication US5770563A, “Heparin- and sulfatide binding peptides from the type I repeats of human thrombospondin and conjugates thereof” (The United States of America as represented by the …, priority 1995, dated 1998).
Square brackets hold non-standard residues; d marks the D form. Peptide text beside a SMILES is read from it.

How the values were obtained:
[1] = tested on: bovine aortic endothelial cells; test: Proliferation of bovine aortic endothelial cells; assay type: cell-based; settings: free peptide, 40 μM
Method: Endothelial cell proliferation was measured using the CELL TITER 96™ assay (Promega, Madison, Wis.). 5×10^3 cells were plated into each well of a 96-well culture plate in 0.5 or 5% FCS-containing medium together with the indicated concentrations of growth effectors. After 72 h, 15 μl of dye solution was added to each well, and the plates were incubated for an additional 4 h. Solubilization solution was added, and absorbance at 570 nm was determined after 24 h as described by the manufacturer.
FICOLL conjugates of peptide 353 (SEQ ID NO:28) (GGWSHWSPWSSC), 354 (SEQ ID NO:29) (CGGWSHWSPWSS), 224 364 g (SEQ ID NO:30) and 387 (SEQ ID NO:30) (three syntheses of KRFKQDGGWSHWSPWSSC), or free FICOLL were tested at the indicated concentrations as inhibitors of proliferation of bovine aortic endothelial cells in DMEM medium containing 0.5% (FIG. 24A) or 5% (FIG. 24B) fetal calf serum. […] Therefore, the conjugates are general inhibitors of both large and small vessel endothelial cell proliferation. […]
Proliferation of bovine aortic endothelial cells was also determined for cells grown in the presence of the indicated concentrations of peptide 246 (KRFKQDGGWSHWSPWSS) (SEQ ID NO:19) or peptide 416 (retro-inverso) in RPMI-HITES (reg medium) or corresponding conditioned medium from MDA 435 breast carcinoma cells. […]

MDA MB435 tumor = test: MDA MB435 orthotopic tumor growth in nude mice; assay type: in vivo, mouse
Method: (§1) Tumor cells were allowed to implant for approximately one to three weeks prior to administering the peptide analog or a polysucrose conjugate. […] The inhibitory effect persisted beyond the treatment period, although the growth of the tumors eventually resumed.
The presented experiment consisted of two groups of animals. The objective was to test a peptide conjugate for effects on breast carcinoma growth. The treated animals were injected with MDA435 cells alone on day one and then injected intravenously with drugs from day 10 through approximately day 30. Tumor growth and frequency of metastasis were determined in both groups.
NIH Nu/Nu mice, approximately eight weeks of age are injected with 10^5 MDA MB435 cells by the mammary fat pad route. Mice were anesthetized with 150-200 μl i.p. of a 1:80 dilution in PBS of a solution containing 25 g. tribromoethanol in 12.5 ml tertiary amyl alcohol. The mammary fat pad was cleaned with ethanol and a 10 mm incision was made directly above the site of injection. Mammary fat pad #4 could be observed beneath the skin after the incision was made. Using a 0.1 ml Hamilton syringe and 27 gauge 1/2" needle, 10 μl of cell suspension, 1×10^5 cells in HBSS, are injected into the fat pad. The incision is closed using 1-2 Autoclips ([…], Clay Adams). Autoclips are removed 7 days post-injection and scarring is minimal.
Six animals were injected for each condition, per experiment. Animals were earpunched after injection for subsequent identification. Beginning at day 10 and continuing every day until approximately day 30, the experimental animals were injected i.v. (tail vein) with 0.1 ml of the FICOLL conjugate. Primary tumor size was determined twice weekly by length×width×height measurement, and the animals are observed daily for general health. When the primary tumor of any animal exceeded 20 mm in any dimension, all of the animals were sacrificed. The presence of metastases was determined by gross autopsy and examination of H & E stained sections of any suspicious organ and step sections of the lungs and draining lymph nodes. The primary tumors were removed, stripped free of other tissues, and weighed. At any time during the experiment, animals suspected of being in distress were sacrificed and examined as above.

[2] = tested on: MDA MB435 breast carcinoma cells; test: MDA MB435 human breast carcinoma cell proliferation; assay type: cell-based; settings: free peptide
Method: Human breast carcinoma cells MDA MB435 (American Type Culture Collection) were grown in RPMI 1640 medium containing 10% fetal calf serum. Proliferation was determined as described in FIG. 18 and 44A, B and C.
Human breast carcinoma cells MDA MB435 (American Type Culture Collection) were grown in RPMI 1640 medium containing 10% fetal calf serum. Proliferation was determined in the presence of 0.5% fetal calf serum and bFGF as described in FIG. 19.

[3] = tested on: thrombospondin binding to heparin; test: Inhibition of 125I-thrombospondin binding to immobilized heparin-BSA; set-up: species or system human
How it was run: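 Solid-phase binding: heparin-BSA (0.2 μg/well) adsorbed 2 h at 37° in Dulbecco's PBS, blocked with tris-BSA. Peptides in 50 mM tris pH 7.8, NaCl, 1 mM CaCl2, 0.025% NaN3, 1% BSA mixed with 125I-thrombospondin (added at 0.2 μg/ml), 3 h at 4°; after saline washes, bound radioactivity counted.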

Toxicity in nude mice = assay type: in vivo, mouse; settings: free peptide, up to 10 mg/kg
Description: as §1
Based on published studies of related peptide conjugates (Braatz J. A., Yashuda Y., Olden K., Yamada K. M., Heifetz A. H. (1993): Functional peptide-polyurethane conjugates with extended circulatory half lives. Bioconjugate Chem 4:262-267), the conjugates are predicted have circulating half lives on the order of 10 hours. Free peptides usually have circulating half lives of less than 10 minutes, based on published results. The short half lives were due to clearance or stability of the peptides in plasma. Use of nonhydrolyzable amino acid analogs or capping modifications of the peptides decreases sensitivity to degradation.

AIDS-KS cells [4] = test: AIDS-KS cell proliferation; assay type: cell-based, human
Method: AIDS-KS cell strains were cultured as previously described (Nakamura, S. et al. "Kaposi's Sarcoma Cells: Long-Term Culture with Growth Factor From Retrovirus-Infected CD4+T Cells", Science, (1988) 242:426; and Salahuddin, S. Z. et al. "Angiogenic Properties of kaposi's Sarcoma-Derived Cells After Long-Term Culture In Vitro", Science (1988) 242:430). TSP was purified from thrombin-stimulated human platelets as described. TSP peptides and peptide conjugates were synthesized corresponding to sequences of human TSP as described.
For the cell proliferation assays 1×10^3 cells/well were seeded in triplicate in 24 well flat bottom plates (Falcon, Franklin Lakes, N.J.) that contained the required dilutions of TSP, TSP peptide-FICOLL conjugates, and growth factors: 1) Oncostatin M (OSM) (PreProtech) at 25 ng/ml, or 2) activated lymphocyte conditioned medium (AL-CM) at 20%. After 7 days, the cells were trypsinized and counted using a Coulter Zm Cell Counter (Coulter Corporation). The values are triplicate determinations and the bars indicate standard deviations, n=3.

AIDS-KS cells [5] = test: AIDS-KS cell chemotaxis, modified Boyden chamber; assay type: cell-based, human
Method: Directed migration (chemotaxis) and general migration (chemokinesis) of AIDS-KS cells in culture was measured by the modified Boyden chamber assay using fibronectin coated […] Nucleopore filters as previously described. In brief, the AIDS-KS cells, were trypsinized then resuspended in RPMI 1640 containing […] (GIBCO-BRL) and 20% activated lymphocyte conditioned medium. The trypsinized cells were allowed to recover in suspension for 2 hours, then the cells were recovered by centrifugation and resuspended in RPMI 1640 containing 0.1% BS at 5×10^5 cells/ml prior to adding 100 μl to the upper wells in the chemotaxis chamber. Migration to BSA (0.1%) and OSM was performed in the presence of the indicated concentrations of TSP, and TSP peptide-FICOLL conjugates. After 3 hours incubation at 37° C. filters were stained with Diff Quick (Merz-Dade, Dudingen, Switzerland), and the migrated cells in ten high-power fields were counted. The values are triplicate determinations and the bars indicate standard deviations, n=3.

Row | Compound | inhibition of aortic endothelial cell proliferation, in words [1] | tumor growth, dose response (MDA MB435 tumor; 0.2 to 6 mg/kg, treatment with 6 mg/kg) | tumor growth (MDA MB435 tumor; free peptide, daily intravenous, 2 mg/kg) | tumor growth (MDA MB435 tumor; polysucrose/FICOLL conjugate, intravenous) | inhibition of MDA MB435 proliferation, in words [2] | inhibition of thrombospondin binding to heparin, in words ([3]; FICOLL conjugate) | inhibition of thrombospondin binding to heparin, in words ([3]; free peptide) | inhibition of thrombospondin binding to heparin, in words ([3]; free peptide, listed as all D-acCSSWPSWHSWGGDQKFRKam) | activity relative to the native sequence ([3]; free retro-inverso peptide) | IC50 ([3]; retro-inverso peptides, free, read-out: IC50 Inhibitory Activity, Free Peptide) [nM] | toxicity (Toxicity in nude mice) | inhibition of AIDS-KS cell proliferation, in words (AIDS-KS cells [4]) | stimulation of AIDS-KS cell motility (AIDS-KS cells [5]; added in the lower well) | IC50 (AIDS-KS cells [5]; added with OSM, read-out: IC50 inhibition of OSM stimulated migration) [nM]
1 | CC(=O)N[C@H](CS)C(=O)N[C@H](CO)C(=O)N[C@H](CO)C(=O)N[C@H](Cc1c[nH]c2ccccc12)C(=O)N1CCC[C@@H]1C(=O)N[C@H](CO)C(=O)N[C@H](Cc1c[nH]c2ccccc12)C(=O)N[C@H](Cc1c[nH]cn1)C(=O)N[C@H](CO)C(=O)N[C@H](Cc1c[nH]c2ccccc12)C(=O)NCC(=O)NCC(=O)N[C@H](CC(=O)O)C(=O)N[C@H](CCC(N)=O)C(=O)N[C@H](CCCCN)C(=O)N[C@H](Cc1ccccc1)C(=O)N[C@H](CCCNC(=N)N)C(=O)N[C@H](CCCCN)C(N)=O [Peptide 416, ri-amKRFKQDGGWSHWSPWSSCac] (Ac-[dC][dS][dS][dW][dP][dS][dW][dH][dS][dW]GG[dD][dQ][dK][dF][dR][dK]-NH2) | significantly inhibit proliferation | maximal inhibition of tumor growth | significantly inhibited tumor growth | No significant inhibition of tumor growth | substantial inhibition of MDA cell proliferation | active | retains heparin-binding activity | retained full activity | approximately three-fold less | 400 | without overt toxicity |  |  | 
2 | TSP: thrombospondin purified from thrombin-stimulated human platelets |  |  |  |  |  |  |  |  |  |  |  | concentration dependent decrease in cell number | dose-dependent stimulation of AIDS-KS cell motility | < 110
